Where two headings read alike, the source gives them in different places. Numbered stars: 1 amine (or outer) side, 2 acyl side, 3 side chain; on linkers, the order of the positions; unused ones are H or OH. Square brackets hold non-standard residues; d marks the D form. Side chains are listed from the residue outwards. Peptide text beside a SMILES is read from it. * marks the point of attachment. C20 diacid = O=C(O)CCCCCCCCCCCCCCCCCCC(=O)*; γGlu = O=C(O)[C@H](CCC(=O)[*:2])N[*:1]; AEEA = NCCOCCOCC(=O)O; Aib = CC(C)(N)C(=O)O
Key:
[1] = Fibril formation of crude library peptides (Thioflavin T); assay type: physicochemical; set-up: key: average ThT fluorescence emission at 480 nm (ex 450 nm), raw units; details: Physical stability of peptides
Summary of the method: (§1)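 Values reflect mean ThT emission (ex 450, em 480 nm) over 72 h at 40° C, read every 10 min after 5 min shaking at 700 rpm, plus a single initial absorbance at 600 nm for turbidity. Peptides were at 267 μM, pH 4.0 acetate or pH 7.0 phosphate (50 mM), with 4 μM ThT.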

[2] = biological target: GLP1R (Homo sapiens, UniProt P43220); test: hGLP1R potency, cAMP accumulation in CHO-K1 cells stably overexpressing hGLP1R; assay type: cell-based; set-up: host or cells: CHO-K1; details: for SCTR EC50/GLP1R EC50 ratio: selectivity for hGLP1R over hSCTR, cAMP accumulation in CHO-K1 cells; for Selectivity: SCTR EC50/GLP1R EC50 ratio
Chain of GLP1R (P43220 24-463): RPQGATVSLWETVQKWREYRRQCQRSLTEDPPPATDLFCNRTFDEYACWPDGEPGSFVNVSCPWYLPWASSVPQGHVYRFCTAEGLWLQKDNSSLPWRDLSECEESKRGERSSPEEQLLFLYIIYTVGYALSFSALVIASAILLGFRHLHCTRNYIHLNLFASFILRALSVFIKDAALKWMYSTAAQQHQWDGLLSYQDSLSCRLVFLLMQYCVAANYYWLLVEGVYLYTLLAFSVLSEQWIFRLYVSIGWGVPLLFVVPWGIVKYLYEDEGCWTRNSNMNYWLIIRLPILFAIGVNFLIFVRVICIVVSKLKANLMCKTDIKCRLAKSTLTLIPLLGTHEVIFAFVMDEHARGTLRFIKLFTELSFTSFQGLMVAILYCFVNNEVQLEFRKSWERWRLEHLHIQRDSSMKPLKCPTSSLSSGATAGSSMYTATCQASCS
Summary of the method: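 Potency reflects cAMP accumulation measured by time-resolved fluorescence energy transfer after a 30 min room-temperature stimulation in IBMX-containing (0.5 mM) DPBS with casein. Purified peptides were tested in duplicate over eleven threefold dilutions, and EC50 was obtained from sigmoid concentration-response fitting.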

[3] = Turbidity of crude library peptides (absorbance at 600 nm); assay type: physicochemical; details: Physical stability of peptides
Summary of the method: as §1

[4] = biological target: SCTR (Homo sapiens, UniProt P47872); test: hSCTR potency, cAMP accumulation in CHO-K1 cells stably overexpressing hSCTR; assay type: cell-based; set-up: alternatively Euroscreen ES-712-AF; FAST-0161L; host or cells: CHO-K1
Chain of SCTR (P47872 23-440): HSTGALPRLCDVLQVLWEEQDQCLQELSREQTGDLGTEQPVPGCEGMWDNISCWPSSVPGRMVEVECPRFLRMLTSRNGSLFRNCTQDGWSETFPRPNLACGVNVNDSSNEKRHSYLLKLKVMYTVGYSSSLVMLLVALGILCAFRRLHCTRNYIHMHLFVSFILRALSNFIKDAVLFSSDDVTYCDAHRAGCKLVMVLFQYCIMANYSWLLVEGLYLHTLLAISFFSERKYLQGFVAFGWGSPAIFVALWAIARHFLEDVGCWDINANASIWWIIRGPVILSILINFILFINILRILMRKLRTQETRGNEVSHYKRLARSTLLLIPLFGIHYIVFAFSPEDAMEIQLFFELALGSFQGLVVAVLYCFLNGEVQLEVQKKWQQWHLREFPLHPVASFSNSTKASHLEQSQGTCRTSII
Summary of the method: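 Potency reflects cAMP accumulation after 30 min agonist exposure at room temperature in hSCTR-expressing CHO-K1 cells, with 0.5 mM IBMX present to block phosphodiesterase. EC50 was derived by nonlinear regression.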

[5] = cAMP accumulation, CHO-K1 cells overexpressing hGLP1R, read-out: hGLP1R pEC50 (converted)
[6] = cAMP accumulation, CHO-K1 cells overexpressing hSCTR, read-out: hSCTR pEC50 (converted)

Row | SMILES | Fibril formation [1] | EC50 [2, 5] [nM] | SCTR EC50/GLP1R EC50 ratio [2] | Turbidity (pH 7) [3] | EC50 [4, 6] [nM] | EC50 ([2]; cAMP accumulation, CHO-K1 cells overexpressing hGLP1R, read-out: pEC50 hGLPR1 (converted)) [nM] | EC50 ([4]; cAMP accumulation, CHO-K1 cells overexpressing hSCTR, read-out: pEC50 hSCTR (converted)) [nM] | Selectivity [2] | EC50 [2] [nM] | EC50 [4] [nM]
1 | CC(C)C[C@H](NC(=O)[C@H](CCC(=O)O)NC(=O)[C@H](CCCCNC(=O)COCCOCCNC(=O)COCCOCCNC(=O)CC[C@H](NC(=O)CCCCCCCCCCCCCCCCCCC(=O)O)C(=O)O)NC(=O)[C@H](CC(C)C)NC(=O)[C@H](CCCNC(=N)N)NC(=O)[C@H](CO)NC(=O)[C@@H](NC(=O)[C@H](CC(=O)O)NC(=O)[C@H](CO)NC(=O)[C@@H](NC(=O)[C@H](Cc1ccccc1)NC(=O)[C@@H](NC(=O)CNC(=O)[C@H](CCC(=O)O)NC(=O)C(C)(C)NC(=O)[C@@H](N)Cc1c[nH]cn1)[C@@H](C)O)[C@@H](C)O)C(C)C)C(=O)N[C@@H](C)C(=O)N[C@@H](C)C(=O)N[C@@H](CO)C(=O)N[C@@H](CCC(N)=O)C(=O)N[C@@H](CCCNC(=N)N)C(=O)N[C@@H](Cc1ccccc1)C(=O)N[C@@H](CC(C)C)C(=O)N[C@@H](CCC(=O)O)C(=O)N[C@@H](Cc1c[nH]cn1)C(=O)N[C@@H](CC(C)C)C(=O)N[C@H](C(N)=O)C(C)C [compound 19] (H-H[Aib]EGTFTSDVSRLK([AEEA-AEEA-γGlu-C20 diacid])ELAASQRFLEHLV-NH2) | 170210 | – | – | 0.10 | – | 0.0794 | 631 | 7342 | – | –
2 | CC[C@H](C)[C@H](NC(=O)[C@H](Cc1ccccc1)NC(=O)[C@H](CCCNC(=N)N)NC(=O)[C@H](CCC(N)=O)NC(=O)[C@H](CC(C)C)NC(=O)[C@H](C)NC(=O)[C@H](C)NC(=O)CNC(=O)[C@H](CCC(=O)O)NC(=O)[C@H](CC(C)C)NC(=O)[C@H](CC(C)C)NC(=O)C(C)(C)NC(=O)[C@H](CO)NC(=O)[C@@H](NC(=O)[C@H](CC(=O)O)NC(=O)[C@H](CO)NC(=O)[C@@H](NC(=O)[C@H](Cc1ccccc1)NC(=O)[C@@H](NC(=O)CNC(=O)[C@H](CCC(=O)O)NC(=O)C(C)(C)NC(=O)[C@@H](N)Cc1c[nH]cn1)[C@@H](C)O)[C@@H](C)O)[C@@H](C)CC)C(=O)N[C@@H](CCC(N)=O)C(=O)N[C@@H](Cc1c[nH]c2ccccc12)C(=O)N[C@@H](CC(C)C)C(=O)N[C@H](C(N)=O)C(C)C [compound 113] (H-H[Aib]EGTFTSDIS[Aib]LLEGAALQRFIQWLV-NH2) | 11510 | 0.0501 | 1590 | 0.78 | 79.4 | – | – | – | – | –
3 | CC(C)C[C@H](NC(=O)[C@H](Cc1ccccc1)NC(=O)[C@H](CCCNC(=N)N)NC(=O)[C@H](CCC(N)=O)NC(=O)[C@H](C)NC(=O)[C@H](C)NC(=O)[C@H](C)NC(=O)C(C)(C)NC(=O)[C@H](CCC(=O)O)NC(=O)[C@H](CCCCNC(=O)COCCOCCNC(=O)COCCOCCNC(=O)CC[C@H](NC(=O)CCCCCCCCCCCCCCCCCCC(=O)O)C(=O)O)NC(=O)[C@H](CC(C)C)NC(=O)[C@@H](NC(=O)[C@H](CO)NC(=O)[C@@H](NC(=O)[C@H](CC(=O)O)NC(=O)[C@H](CO)NC(=O)[C@@H](NC(=O)[C@H](Cc1ccccc1)NC(=O)[C@@H](NC(=O)CNC(=O)[C@H](CCC(=O)O)NC(=O)C(C)(C)NC(=O)[C@@H](N)Cc1c[nH]cn1)[C@@H](C)O)[C@@H](C)O)C(C)C)[C@@H](C)O)C(=O)N[C@@H](CCC(=O)O)C(=O)N[C@@H](Cc1c[nH]cn1)C(=O)N[C@@H](CC(C)C)C(=O)N[C@H](C(N)=O)C(C)C [compound 43] (H-H[Aib]EGTFTSDVSTLK([AEEA-AEEA-γGlu-C20 diacid])E[Aib]AAAQRFLEHLV-NH2) | 18355 | – | – | 0.09 | – | – | – | 36686 | 0.01 | 316
4 | CC[C@H](C)[C@H](NC(=O)[C@H](Cc1ccccc1)NC(=O)[C@H](CCCNC(=N)N)NC(=O)[C@H](CCC(N)=O)NC(=O)[C@H](CC(C)C)NC(=O)[C@H](C)NC(=O)[C@H](C)NC(=O)CNC(=O)[C@H](CCC(=O)O)NC(=O)[C@H](CC(C)C)NC(=O)[C@H](CC(C)C)NC(=O)[C@@H](NC(=O)[C@H](CO)NC(=O)C(C)(C)NC(=O)[C@H](CC(=O)O)NC(=O)[C@H](CO)NC(=O)[C@@H](NC(=O)[C@H](Cc1ccccc1)NC(=O)[C@@H](NC(=O)CNC(=O)[C@H](CCC(=O)O)NC(=O)C(C)(C)NC(=O)[C@@H](N)Cc1c[nH]cn1)[C@@H](C)O)[C@@H](C)O)C(C)C)C(=O)N[C@@H](CCC(N)=O)C(=O)N[C@@H](Cc1c[nH]c2ccccc12)C(=O)N[C@@H](CC(C)C)C(=O)N[C@H](C(N)=O)C(C)C [compound 110] (H-H[Aib]EGTFTSD[Aib]SVLLEGAALQRFIQWLV-NH2) | 3449 | 0.2 | 10257 | 0.15 | 2000 | – | – | – | – | –

Now from value to molecule, other results behind:

Row | Fibril formation [1] | EC50 [2, 5] [nM] | SCTR EC50/GLP1R EC50 ratio [2] | Turbidity (pH 7) [3] | EC50 [4, 6] [nM] | EC50 ([2]; cAMP accumulation, CHO-K1 cells overexpressing hGLP1R, read-out: pEC50 hGLPR1 (converted)) [nM] | EC50 ([4]; cAMP accumulation, CHO-K1 cells overexpressing hSCTR, read-out: pEC50 hSCTR (converted)) [nM] | SMILES | Selectivity [2] | EC50 [2] [nM] | EC50 [4] [nM]
5 | 4010 | 0.00631 | 21979 | 0.09 | 126 | – | – | CC[C@H](C)[C@H](NC(=O)C(C)(C)NC(=O)[C@H](C)NC(=O)[C@H](CCC(=O)O)NC(=O)[C@H](CCC(=O)O)NC(=O)[C@H](CCCCNC(=O)COCCOCCNC(=O)COCCOCCNC(=O)CC[C@H](NC(=O)CCCCCCCCCCCCCCCCCCC(=O)O)C(=O)O)NC(=O)[C@H](CC(C)C)NC(=O)[C@H](Cc1ccc(O)cc1)NC(=O)[C@H](CO)NC(=O)[C@@H](NC(=O)[C@H](CC(=O)O)NC(=O)[C@H](CO)NC(=O)[C@@H](NC(=O)[C@H](Cc1ccccc1)NC(=O)[C@@H](NC(=O)CNC(=O)[C@H](CCC(=O)O)NC(=O)C(C)(C)NC(=O)[C@@H](N)Cc1c[nH]cn1)[C@@H](C)O)[C@@H](C)O)C(C)C)C(=O)N[C@@H](CCC(N)=O)C(=O)N[C@@H](CCCNC(=N)N)C(=O)N[C@@H](Cc1ccccc1)C(=O)N[C@@H](CC(C)C)C(=O)N[C@@H](CCC(=O)O)C(=O)N[C@@H](Cc1c[nH]cn1)C(=O)N[C@@H](CC(C)C)C(=O)N[C@H](C(N)=O)C(C)C [compound 139] (H-H[Aib]EGTFTSDVSYLK([AEEA-AEEA-γGlu-C20 diacid])EEA[Aib]IQRFLEHLV-NH2) | – | – | –
6 | 2733 | 1.26 | 14381 | 0.08 | 20000 | – | – | CC(C)C[C@H](NC(=O)[C@H](Cc1ccccc1)NC(=O)[C@H](CCCNC(=N)N)NC(=O)[C@H](CCC(N)=O)NC(=O)[C@H](CC(C)C)NC(=O)C(C)(C)NC(=O)[C@H](C)NC(=O)[C@H](CCC(=O)O)NC(=O)[C@H](CCC(=O)O)NC(=O)[C@H](CCCCNC(=O)COCCOCCNC(=O)COCCOCCNC(=O)CC[C@H](NC(=O)CCCCCCCCCCCCCCCCCCC(=O)O)C(=O)O)NC(=O)[C@H](CC(C)C)NC(=O)[C@@H]1CCCN1C(=O)[C@H](CO)NC(=O)[C@@H](NC(=O)[C@H](CC(=O)O)NC(=O)[C@H](CO)NC(=O)[C@@H](NC(=O)[C@H](Cc1ccccc1)NC(=O)[C@@H](NC(=O)CNC(=O)[C@H](CCC(=O)O)NC(=O)C(C)(C)NC(=O)[C@@H](N)Cc1c[nH]cn1)[C@@H](C)O)[C@@H](C)O)C(C)C)C(=O)N[C@@H](CCC(=O)O)C(=O)N[C@@H](Cc1c[nH]cn1)C(=O)N[C@@H](CC(C)C)C(=O)N[C@H](C(N)=O)C(C)C [compound 140] (H-H[Aib]EGTFTSDVSPLK([AEEA-AEEA-γGlu-C20 diacid])EEA[Aib]LQRFLEHLV-NH2) | – | – | –
7 | 3415 | 0.00251 | 121171 | 0.09 | 316 | – | – | CC(C)C[C@H](NC(=O)[C@H](Cc1ccccc1)NC(=O)[C@H](CCCNC(=N)N)NC(=O)[C@H](CCC(N)=O)NC(=O)[C@H](CCC(N)=O)NC(=O)C(C)(C)NC(=O)[C@H](C)NC(=O)[C@H](CCC(=O)O)NC(=O)[C@H](CCC(=O)O)NC(=O)[C@H](CCCCNC(=O)COCCOCCNC(=O)COCCOCCNC(=O)CC[C@H](NC(=O)CCCCCCCCCCCCCCCCCCC(=O)O)C(=O)O)NC(=O)[C@H](CC(C)C)NC(=O)[C@H](Cc1ccc(O)cc1)NC(=O)[C@H](CO)NC(=O)[C@@H](NC(=O)[C@H](CC(=O)O)NC(=O)[C@H](CO)NC(=O)[C@@H](NC(=O)[C@H](Cc1ccccc1)NC(=O)[C@@H](NC(=O)CNC(=O)[C@H](CCC(=O)O)NC(=O)C(C)(C)NC(=O)[C@@H](N)Cc1c[nH]cn1)[C@@H](C)O)[C@@H](C)O)C(C)C)C(=O)N[C@@H](CCC(=O)O)C(=O)N[C@@H](Cc1c[nH]cn1)C(=O)N[C@@H](CC(C)C)C(=O)N[C@H](C(N)=O)C(C)C [compound 157] (H-H[Aib]EGTFTSDVSYLK([AEEA-AEEA-γGlu-C20 diacid])EEA[Aib]QQRFLEHLV-NH2) | – | – | –

Reference: patent publication US20260201008A1, “SECRETIN-DERIVED GLP1R SELECTIVE AGONISTS” (GUBRA A/S, priority 2023, published 2026)
